Data as given in patent publication US20220281848A1, “PYRAZOLE-SUBSTITUTED PYRROLIDINONES AS HERBICIDES” (FMC Corporation, priority 2019, published 2022).

Test system: plants
Experiment: Test D post-emergence, other plants of Tables D2 and D4
Format: in vivo
Details: for ALOMY damage rating (100=total damage to plant; 0=no damage to plant) / AVEFA damage rating (100=total damage to plant; 0=no damage to plant) / BEAVA damage rating (100=total damage to plant; 0=no damage to plant) / BROTE damage rating (100=total damage to plant; 0=no damage to plant) / BRSNN damage rating (100=total damage to plant; 0=no damage to plant) / CHEAL damage rating (100=total damage to plant; 0=no damage to plant) / GALAP damage rating (100=total damage to plant; 0=no damage to plant) / HORVW damage rating (100=total damage to plant; 0=no damage to plant) / KCHSC damage rating (100=total damage to plant; 0=no damage to plant) / LOLPE damage rating (100=total damage to plant; 0=no damage to plant) / POAAN damage rating (100=total damage to plant; 0=no damage to plant) / POLCO damage rating (100=total damage to plant; 0=no damage to plant) / SINAR damage rating (100=total damage to plant; 0=no damage to plant) / STEME damage rating (100=total damage to plant; 0=no damage to plant) / VERPE damage rating (100=total damage to plant; 0=no damage to plant): "Cereals" Postemergent, evaluated after 15 d; for damage to plant (100=total damage to plant; 0=no damage to plant), ABUTH / damage to plant (100=total damage to plant; 0=no damage to plant), AMARE: post-emergence
Method in brief: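 Seeds treated with herbicide safener; sown in soil; glasshouse, 16 h light, 65% humidity. Sprayed day 1 (pre) or ~day 12 (post). Spray in 0.2% v/v adjuvant. Scored 0–100 damage: 20 DAA pre, 15 d post.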

## CN1CC(c2cc(C(F)(F)F)n(C)n2)C(C(=O)Nc2ccc(F)cc2C(C)(F)F)C1=O (racemic) [Compound 26]
Rates 130
  ALOMY damage rating (100=total damage to plant; 0=no damage to plant): 0
  AVEFA damage rating (100=total damage to plant; 0=no damage to plant): 0
  BEAVA damage rating (100=total damage to plant; 0=no damage to plant): 0
  BROTE damage rating (100=total damage to plant; 0=no damage to plant): 0
  BRSNN damage rating (100=total damage to plant; 0=no damage to plant): 0
  CHEAL damage rating (100=total damage to plant; 0=no damage to plant): 0
  GALAP damage rating (100=total damage to plant; 0=no damage to plant): 0
  HORVW damage rating (100=total damage to plant; 0=no damage to plant): 0
  KCHSC damage rating (100=total damage to plant; 0=no damage to plant): 0
  LOLPE damage rating (100=total damage to plant; 0=no damage to plant): 0
  POAAN damage rating (100=total damage to plant; 0=no damage to plant): 30
  POLCO damage rating (100=total damage to plant; 0=no damage to plant): 0
  SINAR damage rating (100=total damage to plant; 0=no damage to plant): 0
  STEME damage rating (100=total damage to plant; 0=no damage to plant): 0
  VERPE damage rating (100=total damage to plant; 0=no damage to plant): 0
Rates 250
  ALOMY damage rating (100=total damage to plant; 0=no damage to plant): 0
  AVEFA damage rating (100=total damage to plant; 0=no damage to plant): 10
  BEAVA damage rating (100=total damage to plant; 0=no damage to plant): 0
  BROTE damage rating (100=total damage to plant; 0=no damage to plant): 0
  BRSNN damage rating (100=total damage to plant; 0=no damage to plant): 0
  CHEAL damage rating (100=total damage to plant; 0=no damage to plant): 0
  GALAP damage rating (100=total damage to plant; 0=no damage to plant): 0
  HORVW damage rating (100=total damage to plant; 0=no damage to plant): 0
  KCHSC damage rating (100=total damage to plant; 0=no damage to plant): 0
  LOLPE damage rating (100=total damage to plant; 0=no damage to plant): 0
  POAAN damage rating (100=total damage to plant; 0=no damage to plant): 20
  POLCO damage rating (100=total damage to plant; 0=no damage to plant): 0
  SINAR damage rating (100=total damage to plant; 0=no damage to plant): 0
  STEME damage rating (100=total damage to plant; 0=no damage to plant): 0
  VERPE damage rating (100=total damage to plant; 0=no damage to plant): 0
Rates 500
  ALOMY damage rating (100=total damage to plant; 0=no damage to plant): 40
  AVEFA damage rating (100=total damage to plant; 0=no damage to plant): 60
  BEAVA damage rating (100=total damage to plant; 0=no damage to plant): 0
  BROTE damage rating (100=total damage to plant; 0=no damage to plant): 0
  BRSNN damage rating (100=total damage to plant; 0=no damage to plant): 0
  CHEAL damage rating (100=total damage to plant; 0=no damage to plant): 10
  GALAP damage rating (100=total damage to plant; 0=no damage to plant): 60
  HORVW damage rating (100=total damage to plant; 0=no damage to plant): 40
  KCHSC damage rating (100=total damage to plant; 0=no damage to plant): 0
  LOLPE damage rating (100=total damage to plant; 0=no damage to plant): 60
  POAAN damage rating (100=total damage to plant; 0=no damage to plant): 80
  POLCO damage rating (100=total damage to plant; 0=no damage to plant): 0
  SINAR damage rating (100=total damage to plant; 0=no damage to plant): 10
  STEME damage rating (100=total damage to plant; 0=no damage to plant): 0
  VERPE damage rating (100=total damage to plant; 0=no damage to plant): 80
Rate 130, evaluated after 15 d
  damage to plant (100=total damage to plant; 0=no damage to plant), ABUTH: 0
  damage to plant (100=total damage to plant; 0=no damage to plant), AMARE: 0
Rate 250, evaluated after 15 d
  damage to plant (100=total damage to plant; 0=no damage to plant), ABUTH: 0
  damage to plant (100=total damage to plant; 0=no damage to plant), AMARE: 0
Rate 500, evaluated after 15 d
  damage to plant (100=total damage to plant; 0=no damage to plant), ABUTH: 0
  damage to plant (100=total damage to plant; 0=no damage to plant), AMARE: 0
